The record followed here is ChEMBL document CHEMBL1201862, “PubChem BioAssay data set” (2004).

For experiment [1], the target named is T1, Corticotropin-releasing factor receptor 2/Corticotropin-releasing factor-binding protein (Homo sapiens, UniProt P24387+Q13324).
T1 sequence (Q13324 whole entry): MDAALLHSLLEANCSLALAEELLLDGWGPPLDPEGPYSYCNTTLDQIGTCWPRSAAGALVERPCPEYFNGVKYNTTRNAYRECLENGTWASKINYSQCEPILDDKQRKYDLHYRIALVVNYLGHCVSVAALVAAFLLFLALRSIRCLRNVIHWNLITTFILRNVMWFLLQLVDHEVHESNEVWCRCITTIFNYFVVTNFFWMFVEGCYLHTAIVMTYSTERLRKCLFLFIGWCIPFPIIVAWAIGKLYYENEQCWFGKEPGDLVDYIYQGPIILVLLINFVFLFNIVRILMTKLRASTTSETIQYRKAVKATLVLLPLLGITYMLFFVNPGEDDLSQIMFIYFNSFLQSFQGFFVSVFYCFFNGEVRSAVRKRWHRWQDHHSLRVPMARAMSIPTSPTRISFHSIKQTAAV
T1 sequence (P24387 whole entry): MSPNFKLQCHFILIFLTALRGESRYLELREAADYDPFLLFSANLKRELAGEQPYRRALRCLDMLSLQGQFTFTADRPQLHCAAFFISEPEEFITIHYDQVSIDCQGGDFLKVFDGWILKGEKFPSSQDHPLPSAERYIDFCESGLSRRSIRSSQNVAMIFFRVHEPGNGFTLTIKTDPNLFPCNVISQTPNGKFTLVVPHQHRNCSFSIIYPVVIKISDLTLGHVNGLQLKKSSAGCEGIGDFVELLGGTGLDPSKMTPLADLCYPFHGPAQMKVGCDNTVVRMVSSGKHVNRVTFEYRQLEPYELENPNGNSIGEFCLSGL
Briefly: activators of CRF receptor 2 with binding protein – uHTS hits, confirmation (AID 602473). The format is functional. To be noted: read-out: EC50_Mean.

For experiment [2], the target named is T1, Corticotropin-releasing factor receptor 2/Corticotropin-releasing factor-binding protein. The experiment can be described thus: Dose Response confirmation of uHTS hits for small molecule antagonists of the CRF-binding protein and CRF-R2 receptor complex. Type of experiment: functional. To be noted: read-out: IC50_Mean.
Experiment [3] has as its target T2, Rac GTPase-activating protein 1 (Homo sapiens, UniProt Q9H0H5).
T2 sequence (Q9H0H5 whole entry): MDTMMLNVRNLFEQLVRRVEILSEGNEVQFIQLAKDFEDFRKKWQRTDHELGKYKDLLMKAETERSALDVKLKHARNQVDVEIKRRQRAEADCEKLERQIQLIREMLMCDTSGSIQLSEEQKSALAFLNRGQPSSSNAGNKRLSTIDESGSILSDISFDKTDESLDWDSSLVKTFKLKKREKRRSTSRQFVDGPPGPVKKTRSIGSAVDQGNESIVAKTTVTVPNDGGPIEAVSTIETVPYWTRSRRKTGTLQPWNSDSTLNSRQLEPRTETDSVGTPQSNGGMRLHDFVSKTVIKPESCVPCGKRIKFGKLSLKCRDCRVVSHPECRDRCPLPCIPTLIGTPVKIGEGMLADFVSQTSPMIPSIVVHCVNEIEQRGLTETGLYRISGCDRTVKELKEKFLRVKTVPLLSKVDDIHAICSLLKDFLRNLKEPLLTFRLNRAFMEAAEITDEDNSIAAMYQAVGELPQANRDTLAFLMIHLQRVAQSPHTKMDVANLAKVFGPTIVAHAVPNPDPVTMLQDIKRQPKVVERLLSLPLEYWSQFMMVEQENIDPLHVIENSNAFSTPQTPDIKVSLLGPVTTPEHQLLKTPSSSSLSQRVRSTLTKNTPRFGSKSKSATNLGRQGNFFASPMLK
Briefly: blockers of MgcRacGAP-driven Rac1 GTP hydrolysis – biochemical, ADP Hunter fluorescence, primary and confirmatory, confirmation (AID 624330). The format is functional.

Experiment [4] addresses Cytochrome P450 3A4 (Homo sapiens, UniProt P08684).
A short description of experiment [5]: alpha-synuclein stem-loop luciferase translation blockers – H4 neuroglioma cells, luminescence, confirmation (AID 1988). Type of experiment: functional, cell-based.
A short description of experiment [6]: luciferase reporter signal suppression in cells – H4 neuroglioma cells, luminescence, dose response (AID 1990). The format is functional, cell-based.
The nature of experiment [7]: Luminescence Cell-Based Dose Response HTS to Identify Inhibitors of 5'UTR Stem-Loop Driven Prion Protein mRNA Translation in H4 Neuroglioblastoma Cells. [Related pubchem assays: 1827 (Project Summary), 1813 (Primary HTS)]. Type of experiment: functional.
In experiment [8] the test system is INS1. Briefly: INS-1E survival protection against cytokine death – cell-based, luminescence, retest, dose response (AID 449756).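 Also: cell death triggered by IL-1 beta plus TNF-alpha plus IFN-gamma mixture; protective hits raise ATP signal compared with cytokine alone wells.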 Type of experiment: functional. To be noted: Rattus norvegicus, INS1.
For experiment [9], the target named is T3, Streptokinase A (Streptococcus pyogenes serotype M1, UniProt P10520).
T3 sequence (P10520 whole entry): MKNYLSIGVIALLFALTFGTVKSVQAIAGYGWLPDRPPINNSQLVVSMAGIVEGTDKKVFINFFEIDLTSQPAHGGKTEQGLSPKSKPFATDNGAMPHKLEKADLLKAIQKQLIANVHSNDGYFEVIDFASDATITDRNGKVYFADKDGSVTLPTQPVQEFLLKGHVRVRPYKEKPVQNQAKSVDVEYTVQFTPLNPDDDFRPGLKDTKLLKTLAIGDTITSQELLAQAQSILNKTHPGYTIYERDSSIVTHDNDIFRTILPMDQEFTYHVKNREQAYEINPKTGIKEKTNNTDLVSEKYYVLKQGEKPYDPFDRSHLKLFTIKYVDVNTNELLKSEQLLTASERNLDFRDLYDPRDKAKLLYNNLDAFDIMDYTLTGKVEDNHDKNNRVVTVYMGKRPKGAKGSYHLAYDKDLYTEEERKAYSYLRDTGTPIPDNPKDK
Briefly: viability-normalized secreted streptokinase activity reduction – plasminogen activation absorbance, OD405, dose response (AID 1914).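 Also: secreted streptokinase activity via plasminogen activation per viability signal from cell pellet.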 The format is functional, Streptococcus pyogenes M1 GAS.

The test system of experiment [10] is Streptococcus sp. 'group A'. Briefly: Streptococcus pyogenes SK(-)GAS viability under kanamycin – luminescence, BacTiterGlo, confirmation, counter-screen for streptokinase expression inhibitor project, dose response (AID 1900). Type of experiment: functional, organism-based. Background: The purpose of a counterscreen is to sort out artefacts and off-target activity.

Experiment [11] relates to Streptococcus. Briefly: GAS UMAA2166 growth inhibition – luminescence, BacTiterGlo, counter-screen for streptokinase expression inhibitor project, dose response (AID 1915).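 Also: potency for reduction of bacterial viability or growth.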 The format is functional, organism-based.
Experiment [12] is described as follows: NIH3T3 cell viability loss – ATP luminescence, mouse fibroblasts, counter-screen, dose response (AID 2010).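 Also: cells exposed to compound for about 90 hours before reading.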 Type of experiment: functional, cell-based.
Experiment [13] can be described thus: Trypanosoma cruzi growth suppression in host cells – NIH3T3 host cells, beta-gal luminescence, confirmation (AID 2044).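 Also: intracellular parasites grown in NIH/3T3 mouse fibroblasts as host cells; luminescent beta-galactosidase reporter signal from transgenic T. cruzi replicating inside host cells; inhibitors lower the luminescence signal.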 Type of experiment: functional, cell-based.

Each structure is given as a SMILES string. Calls of active or inactive are those of the source. Rule as the data show it, for most assays here: actives have a measured EC50 and inactives only a lower limit. A value given as a limit tells only on which side of the number the result lay.

Sequence of Cytochrome P450 3A4 (P08684 whole entry): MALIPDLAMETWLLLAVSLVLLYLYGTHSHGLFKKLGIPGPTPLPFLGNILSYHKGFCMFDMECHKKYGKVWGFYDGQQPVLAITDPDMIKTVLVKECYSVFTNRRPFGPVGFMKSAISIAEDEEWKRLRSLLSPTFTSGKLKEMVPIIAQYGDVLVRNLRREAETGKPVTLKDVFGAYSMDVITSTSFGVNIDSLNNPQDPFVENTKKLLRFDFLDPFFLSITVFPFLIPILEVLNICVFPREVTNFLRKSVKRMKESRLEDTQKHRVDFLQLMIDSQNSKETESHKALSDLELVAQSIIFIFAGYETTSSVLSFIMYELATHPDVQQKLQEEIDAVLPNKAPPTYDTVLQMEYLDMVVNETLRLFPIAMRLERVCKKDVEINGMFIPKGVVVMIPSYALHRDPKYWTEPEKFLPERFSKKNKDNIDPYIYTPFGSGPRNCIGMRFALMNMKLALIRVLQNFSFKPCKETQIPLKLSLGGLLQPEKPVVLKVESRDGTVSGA

Regarding `O=C(c1ccc2snnc2c1)N1CCN(c2ccccn2)CC1`, the EC50 in experiment [1] is > 53 µM (inactive). The IC50 in [2] was > 47.1 µM (inactive).

For `O=C(COc1ccccc1)N1CCN(CC2CC3C=CC2C3)CC1` (centres undefined), the IC50 in [3] was 175 µM (active).

Turning to `O=[N+]([O-])c1cccc(CN2CCN(Cc3ccco3)CC2)c1`, the IC50 in experiment [3] was 98.5 µM (active). Regarding `COc1ccccc1N1CCN(C(=O)/C=C/c2cccs2)CC1`, the EC50 in experiment [1] was > 53 µM (inactive). In addition, in [2], the IC50 was > 47.1 µM (inactive). `CC(C)(C)N=C(S)Nc1ccc(Nc2ccccc2)cc1`: the AC50 in experiment [4] was 11.2 µM (inconclusive). The IC50 in [3] was 103 µM (active). For `O=C(Oc1ccc2c(c1)OCO2)c1ccc(Br)c(S(=O)(=O)N2CCOCC2)c1`, in experiment [3], the IC50 is 76.1 µM (active). With `COc1ccccc1Nc1nnc(S)s1`, the IC50 in experiment [3] was 57.1 µM (active). Take `CC1(C)CC(=O)C=C(Nc2ccc(Br)cn2)C1`: the EC50 in [5], in experiment [6] and in experiment [7] was > 120 µM (not active) throughout. In the case of `COC(=O)c1[nH]c2ccccc2c1NC(=O)Oc1ccccc1`, the IC50 in [3] is 15.9 µM (active). With `CCCCCCc1ccc(N2C[C@H](Cc3ccccc3)[C@@H](CC(=O)Nc3ccccc3)C2=O)cc1`, the AC50 in experiment [8] was 14.2 µM (active). For the molecule `COc1cc([C@@H]2c3cc4c(cc3[C@@H](O)[C@@H](CO)[C@@H]2CO)OCO4)cc(OC)c1O[Si](C)(C)C(C)(C)C`, the EC50 in experiment [5] is 11.5 µM (active); in experiment [6], 15.9 µM (active); in experiment [7], 39.1 µM (active).

Take `Cc1ccc(C)c(C(C)NC(=O)c2ccccc2Br)c1` (centres undefined): the EC50 in experiment [1] is > 53 µM (inactive). In addition, the IC50 in experiment [2] is > 47.1 µM (inactive).

As to `CCOc1ccc(CNC(=O)CCCn2nc(C)c3c(C)n(-c4ccc(C)cc4)nc3c2=O)cc1`, the figures for the EC50 in [5], in [6] and in experiment [7] were 32.2 µM (active), 11.4 µM (active) and > 120 µM (not active), respectively. In the case of `O=C(NCC1OCCc2ccccc21)c1ccc(NC(=O)c2ccc(Cl)cc2)cc1` (centres undefined), the EC50 in [5] is 12.5 µM (active); in [6], > 120 µM (not active); in experiment [7] it was 14.2 µM (active). For `O=[N+]([O-])c1cc(C(F)(F)F)ccc1NCCCCNS(=O)(=O)c1ccc(Cl)cc1`, the AC50 in experiment [8] is 6.5 µM (active).

For the molecule `CC/C(C)=C1\SC(N2CCN(c3cccc(C(F)(F)F)c3)CC2)=NC1=O`, the EC50 is > 120 µM (not active) in experiment [5], 19.9 µM (active) in experiment [6] and > 120 µM (not active) in [7].

For the molecule `Cc1ccc(C)c(NC(S)=NCCCN2CCOCC2)c1`, in experiment [1], the EC50 was > 53 µM (inactive). In addition, in [2], the IC50 was > 47.1 µM (inactive). In the case of `CCn1c(C)nc2cc(C(=O)NN=Cc3ccc([N+](=O)[O-])cc3)ccc21`, the EC50 in experiment [1] is > 53 µM (inactive). In [2], the IC50 was > 47.1 µM (inactive). On to `Cc1ccc(C(=O)NCCSc2ccccc2)cc1S(=O)(=O)Nc1ccccc1`, for which the EC50 in experiment [5] was > 120 µM (not active); in [6], 29.3 µM (active); in experiment [7], 23.3 µM (active). For the molecule `COc1cc(/C=C/CN2CCN(CCC(C)C)C(CCO)C2)ccc1O` (centres undefined), the IC50 in [3] is 101 µM (active). Regarding `O=C1CC(Nc2cc(O)nc(O)n2)C(=O)N1c1ccccc1Cl` (centres undefined), in [1], the EC50 was > 53 µM (inactive). In experiment [2], the IC50 is > 47.1 µM (inactive).

Turning to `CCC(C)Nc1nc(N)c([N+](=O)[O-])c(Nc2cc(OC)ccc2OC)n1` (centres undefined), the EC50 is 13.3 µM (active) in [5]; > 150 µM (not active) in [9]; 10.7 µM (active) in experiment [6]; 12.8 µM (active) in experiment [7]; 2.35 µM (active) in [10]; 11.9 µM (active) in experiment [11]. `N=c1nc(N)nc2n1NC(c1ccc(F)cc1)=CS2`: the figures for the EC50 in [5], in experiment [6] and in [7] were 13.7 µM (active), > 120 µM (not active) and > 120 µM (not active), respectively. Turning to `CC(C)NCC(=O)Nc1c2c(nc3ccccc13)CCC2`, the IC50 in [3] is 53.2 µM (active). As for `C[C@H](NC(=O)[C@@H]1Cc2ccccc2CN1)C(=O)NC1CCCCC1`, the EC50 in experiment [1] is > 53 µM (inactive). Besides, in experiment [2], the IC50 is > 47.1 µM (inactive).

For `Nc1ccc2c(c1)Cc1cc(N)c(Br)cc1-2`, the IC50 in [3] is 7.57 µM (active). On to `CC(NC(=O)COC(=O)C12CC3CC(CC(Br)(C3)C1)C2)c1ccccc1` (centres undefined), for which, in experiment [1], the EC50 was > 53 µM (inactive). Besides, the IC50 in experiment [2] was > 47.1 µM (inactive). In the case of `O=C1C=C(c2ccc(F)cc2OCc2ccccc2)C[C@@H](c2ccc(Cl)cc2)C1`, the AC50 in [8] was 4.89 µM (active).

As for `CNc1nc(NC)nc(NNC(=O)c2ccccc2)n1`, the EC50 in [1] is > 53 µM (inactive). Moreover, the IC50 in [2] is > 47.1 µM (inactive). Take `C/C(=N\Nc1nc(C)cc(-c2ccccc2)n1)c1ccc(F)cc1`: the half-maximal activity concentration (AC50) in experiment [8] is 3.13 µM (active).

With `COc1cccc(/C=N/NC(=O)c2c(-c3ccccc3)noc2C)c1O`, in experiment [8], the AC50 is 2.5 µM (active). For `C/C(=N\NC(=O)c1ccc(NS(=O)(=O)c2cccs2)cc1)c1ccccc1`, the EC50 in experiment [1] was > 53 µM (inactive). The IC50 in experiment [2] was > 47.1 µM (inactive). Consider `Cc1ccccc1NS(=O)(=O)c1ccc(C(=O)N(C)CC(=O)Nc2ccccc2Br)cc1`, for which the EC50 in [1] was > 53 µM (inactive). Moreover, the IC50 in experiment [2] was > 47.1 µM (inactive). `CC1(C)CC(=O)C=C(Nc2ccc(O)cc2)C1`: the IC50 in [3] was 20.2 µM (active). As for `COc1ccc(C(=O)NCC(=O)N/N=C/c2ccc([N+](=O)[O-])s2)cc1OC`, the EC50 in experiment [12] is > 60 µM (not active); in experiment [13] it was 0.504 µM (active). For the same molecule, the AC50 in experiment [8] is 8.94 µM (active). Consider `O=C(CNC(=O)c1cccnc1)N/N=C/c1ccc(O)cc1O`, for which the IC50 in experiment [3] was 97.4 µM (active).

By AC50 is commonly meant the midpoint of the concentration-response curve, whichever way the signal moves.
